According to patent publication US20240252496A1, “SELECTIVE HYPOTHALAMUS PERMEABLE HDAC6 INHIBITORS FORTREATMENT OF LEPTIN-RESISTANT OBESITY” (The Children’s Medical Center Corporation, priority 2022, published 2024):
“And” between values parts separate entries of the source, which are not always exact repeats. Equal entries are not always repeated. Where two headings read alike, the source gives them in different places.

Key:
[1] = tested on: STAT3^Tyr705 phosphorylation; assay: Leptin-stimulated hypothalamic STAT3 phosphorylation in DIO mice; format: in vivo; settings: 45 min after leptin 1 mg/kg i.p., ACY775 10, ACY738 50, ricolinostat 50 mg/kg/day i.p.
Experimental: DIO mice were pretreated with ACY775 (10 mg/kg/day, i.p.) or vehicle for 3 days, which was followed by a last injection of ACY775 (or vehicle) in the morning of fourth day. 6 hours later mice were injected with saline or leptin (1 mg/kg, i.p.) and hypothalamus were extracted after 45 minutes following the leptin injection. Representative immunoblots for STAT3^Tyr705 phosphorylation and total STAT3 from the hypothalamus. Quantification of the ratio of p-STAT3^Tyr705 to total-STAT3 signal in the immunoblots. The results were reproduced in three independent experiments. The results were analyzed hourly.
DIO mice were pretreated with ACY775 (10 mg/kg/day, i.p.) or vehicle for 3 days, which was followed by a last injection of ACY775 (or vehicle) in the morning of fourth day. 6 hours later mice were injected with saline or leptin (1 mg/kg, i.p.) and the hypothalamus were extracted after 45 minutes following the leptin injection.
6 hours later mice were injected with saline or leptin (1 mg/kg, i.p.) and hypothalamus were extracted after 45 minutes following the leptin injection. Immunoblots for STAT3^Tyr705 phosphorylation and total STAT3 from the hypothalamus were made to quantify the ratio of p-STAT3^Tyr705 to total-STAT3 signal in the immunoblots. The results were reproduced in two independent experiments.
DIO mice were pretreated with ricolinostat (50 mg/kg/day, i.p.) or vehicle 3 days, which was followed by a last injection of ricolinostat (or vehicle) in the morning of fourth day. 6 hours later mice were injected with saline or leptin (1 mg/kg, i.p.) and the hypothalamus were extracted after 45 minutes following the leptin injection. Immunoblots were performed for STAT3^Tyr705 phosphorylation and total STAT3 from the hypothalamus. The ratio of p-STAT3^Tyr705 to total STAT3 signal in the immunoblots was quantified.

DIO mice [2] = assay: Single dose food intake in 24 h-fasted DIO mice; format: in vivo; settings: ACY775 10, ACY738 50 mg/kg i.p.
Experimental: Food intake was analyzed hourly until 3:00 am. […] DEXA scans were performed in two different cohorts.

DIO mice [3] = assay: Conditioned place preference (CPP) assay in DIO mice; format: in vivo; settings: fed and fasting conditions, vs vehicle
Experimental: DIO mice were treated with vehicle or ACY775 (10 mg/kg, i.p., once a day) for 3 days. On the fourth day, 1 h after the beginning of the light cycle, the mice were administered vehicle or ACY775 (10 mg/kg, i.p.) and the conditioned place preference (CPP) assay under the ad libitum feeding condition was utilized. The CPP assay was performed 6 h later under the ad libitum feeding condition (n=10 mice for both the Vehicle- and ACY775-treated groups). CPP assay under a 20-h fasting condition was also performed. DIG mice were treated with vehicle or ACY775 (10 mg/kg, i.p.) once a day and fasted for 15 h after the third injection. On the fourth day, 1 h after the beginning of the light cycle, the mice were administered vehicle or ACY775 (10 mg/kg body weight, i.p.) and the CPP assay was performed 5 h after this injection under the fasting condition (n=10 mice for both the Vehicle- and ACY775-treated groups).
Measurements were made of the total distance that the mice traveled during the CPP test, the average velocity of movement during the assay, the total time the mice spent in the dark chamber during the test; the frequency with which the mice traveled to the dark chamber during the test; the total time the mice spent in the food-paired white chamber; the frequency with which the mice traveled to the food paired white chamber; the total time the mice spent in the food-containing zone within the food-paired side chamber; and the frequency with which the mice traveled to the food-containing zone within the food-paired side chamber during the test.

DIO mice [4] = assay: Metabolic cages (CLAMS) in DIO mice; format: in vivo; settings: for energy expenditure: 3 days, ACY775 10, ACY738 50 mg/kg i.p.
Experimental: Diet induced obese (DIO) mice were placed into metabolic cages and received ACY775 (10 mg/kg, i.p., n=7) or vehicle (n=8) once a day for 3 days. Energy expenditure, respiratory exchange ratios (RER; VCO2/VO2), ambulatory count (physical activity) from each group of mice were determined. Bar graphs represent average of two dark (8-20 and 32-44 hr) and two light cycles ([…]).
Comprehensive Lab Animal Monitoring System (CLAMS) was used to measure metabolic parameters such as energy expenditure (EE) and respiratory exchange ratio (RER) and physical activity levels in Vehicle- and ACY775-treated mice.

WT lean mice = assay: 3-week treatment of WT lean mice; format: in vivo; settings: for lean mass, total fat mass, fat percentage / body weight: 3 weeks; for body weight: ACY775 10, ACY738 50 mg/kg i.p.; for liver morphology: end of treatment
Experimental: Daily food intake (g) during 3 weeks of treatment. Serum leptin (ng/ml) levels were measured after 3 weeks of treatment. Lean mass (g); fat mass (g) and fat percentage (%) after 3 weeks of treatment were measured by DEXA scan. GTT was measured after 1 week of treatment. AOC analysis for GTT was performed. Blood glucose (mg/dl) level was measured after 1 week of treatment. ITT was measured after 2 weeks of treatment. Serum insulin (ng/ml) levels were measured after 3 weeks of treatment.

db/db mice = assay: 3-week treatment of db/db mice; format: in vivo; settings: for glucose tolerance (GTT): 1 week; for ITT: 2 weeks; for body weight heavier than initial body weight: end of 3 weeks, ACY775 10, ACY738 50 mg/kg i.p.
Experimental: Daily food intake (g), Serum leptin (ng/ml), lean mass (g), fat mass (g) and fat percentage (%) were measured after 3 weeks of treatment measured by DEXA scan. GTT was determined after 1 week of treatment. AOC analysis for GTT was performed and Blood glucose (mg/dl) levels were measured after 1 week of treatment. Blood glucose (mg/dl) levels and Serum insulin (ng/ml) levels were measured after 3 weeks of treatment. ITT was assessed after 2 weeks of treatment. H&E staining of the liver sections was conducted after 3 weeks of treatment.

HDAC6 KO mice = assay: 3-week treatment of DIO WT versus HDAC6 KO mice; format: in vivo; settings: for body weight, HDAC6 KO vs WT DIO mice: 3 weeks i.p., ACY775 10, ACY738 50, Tubastatin A 25 mg/kg/day; for fat mass and fat %, HDAC6 KO vs WT / lean mass, HDAC6 KO vs WT: DEXA; for blood glucose, serum insulin and leptin levels, HDAC6 KO vs WT / food intake, HDAC6 KO vs WT DIO mice / glucose tolerance and insulin sensitivity (GTT, ITT), HDAC6 KO vs WT: mouse, in vivo
[5] = cited from earlier work; for brain/plasma ratio: in vivo
HDAC6 = HDAC6 (Mus musculus (Mouse), UniProt Q9Z2V5); assay: HDAC6 inhibition in hypothalamus and other brain regions (Ac-tubulin); parameters: species or system mice; settings: in vivo
Chain of HDAC6 (Q9Z2V5 whole entry): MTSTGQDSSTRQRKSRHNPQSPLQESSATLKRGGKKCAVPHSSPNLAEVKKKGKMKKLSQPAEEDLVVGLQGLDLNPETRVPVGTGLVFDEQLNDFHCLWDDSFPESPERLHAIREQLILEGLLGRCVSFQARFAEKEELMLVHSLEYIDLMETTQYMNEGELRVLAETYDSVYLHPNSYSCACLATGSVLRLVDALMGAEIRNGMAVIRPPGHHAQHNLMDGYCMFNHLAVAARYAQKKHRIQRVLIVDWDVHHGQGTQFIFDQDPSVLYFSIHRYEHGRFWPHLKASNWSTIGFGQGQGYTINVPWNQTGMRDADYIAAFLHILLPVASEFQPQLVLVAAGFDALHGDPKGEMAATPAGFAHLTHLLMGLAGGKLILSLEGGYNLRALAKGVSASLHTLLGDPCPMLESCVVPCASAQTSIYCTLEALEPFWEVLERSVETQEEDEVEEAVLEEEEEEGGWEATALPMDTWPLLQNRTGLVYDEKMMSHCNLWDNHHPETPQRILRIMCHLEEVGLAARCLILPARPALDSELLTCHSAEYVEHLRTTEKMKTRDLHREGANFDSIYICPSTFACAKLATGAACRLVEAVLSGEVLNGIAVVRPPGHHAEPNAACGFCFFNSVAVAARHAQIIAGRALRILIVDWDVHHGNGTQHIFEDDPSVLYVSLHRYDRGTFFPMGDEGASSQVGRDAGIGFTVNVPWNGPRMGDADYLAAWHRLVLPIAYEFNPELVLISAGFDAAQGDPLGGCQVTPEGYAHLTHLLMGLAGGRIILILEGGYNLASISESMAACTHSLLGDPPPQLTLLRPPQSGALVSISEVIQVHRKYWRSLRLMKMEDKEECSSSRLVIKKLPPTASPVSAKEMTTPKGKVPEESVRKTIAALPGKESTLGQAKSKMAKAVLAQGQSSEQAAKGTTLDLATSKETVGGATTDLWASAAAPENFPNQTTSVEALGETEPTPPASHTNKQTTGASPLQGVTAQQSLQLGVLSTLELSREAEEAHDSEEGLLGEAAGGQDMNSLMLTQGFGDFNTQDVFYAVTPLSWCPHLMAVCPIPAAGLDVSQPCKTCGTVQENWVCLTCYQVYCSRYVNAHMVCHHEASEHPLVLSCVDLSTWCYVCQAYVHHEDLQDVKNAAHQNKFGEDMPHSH

O=C(NO)c1cnc(NC2(c3ccccc3)CC2)nc1 [ACY738]
leptin-stimulated hypothalamic p-STAT3^Tyr705 in inhibitor-pretreated mice [1]: substantially increased
food intake after a single dose (DIO mice [2]): significantly reduced/blocked the food intake
CPP: cumulative duration in dark side chambers (DIO mice [3]): no significant differences in cumulative duration
CPP: time and frequency in food-containing white side chambers (DIO mice [3]): spent similar time and frequency of appearance
CPP: time and frequency in the food zone (DIO mice [3]): significantly shorter time and displayed lower frequency of appearance in the food zone
energy expenditure (DIO mice [4]): higher energy expenditure in light cycle, though without significant difference in dark cycle
daily food intake (WT lean mice): similar
insulin sensitivity (ITT) and circulating insulin levels (WT lean mice): no significant difference in insulin sensitivity and circulating insulin levels
lean mass, total fat mass, fat percentage (WT lean mice): did not detect any alterations
body weight (WT lean mice): neither ACY775 nor ACY738 affected the body weight
liver morphology (WT lean mice): similar
hepatic steatosis (db/db mice): did not improve hepatic steatosis
plasma insulin levels (db/db mice): did not show any significant alterations
glucose tolerance (GTT) (db/db mice): no difference in glucose tolerance
ITT (db/db mice): no significant difference in blood glucose levels
body weight heavier than initial body weight (db/db mice): 2.53%±0.97%
body weight, HDAC6 KO vs WT DIO mice (HDAC6 KO mice): slight decrease in the HDAC6KO mice
fat mass and fat %, HDAC6 KO vs WT (HDAC6 KO mice): significantly lower in the wt group
lean mass, HDAC6 KO vs WT (HDAC6 KO mice): not different
reduction of bodyweight of the wt mice (HDAC6 KO mice; DIO wt mice, ACY738 50 mg/kg i.p.): around 20%
blood glucose, serum insulin and leptin levels, HDAC6 KO vs WT (HDAC6 KO mice): significantly higher in the ACY738-treated HDAC6 KO group
food intake, HDAC6 KO vs WT DIO mice (HDAC6 KO mice): significantly higher in the HDAC6 KO group
glucose tolerance and insulin sensitivity (GTT, ITT), HDAC6 KO vs WT (HDAC6 KO mice): did not improve glucose tolerance and increase insulin sensitivity in the HDAC6 KO mice

O=C(NO)c1cnc(NC2(c3cccc(F)c3)CCCCC2)nc1 [ACY775, 2-[[1-(3-fluorophenyl)cyclohexyl]amino]-N-hydroxy-5-pyrimidinecarboxamide]
leptin-stimulated hypothalamic p-STAT3^Tyr705 in inhibitor-pretreated mice [1]: increased significantly
food intake after a single dose (DIO mice [2]): significantly reduced/blocked the food intake
CPP: appearance frequency in dark side chambers (DIO mice [3]): similar
CPP: cumulative duration in dark side chambers (DIO mice [3]): no significant differences in cumulative duration
CPP: time and frequency in food-containing white side chambers (DIO mice [3]): significantly shorter time and had lower frequency of appearance in the food-containing white side chambers
CPP: time and frequency in the food zone (DIO mice [3]): significantly shorter time and displayed lower frequency of appearance in the food zone
energy expenditure (DIO mice [4]): higher in the both dark and light cycle
respiratory exchange ratio (RER) (DIO mice [4]; dark and light cycles): significantly decreased
daily food intake (WT lean mice): similar
insulin sensitivity (ITT) and circulating insulin levels (WT lean mice): no significant difference in insulin sensitivity and circulating insulin levels
lean mass, total fat mass, fat percentage (WT lean mice): did not detect any alterations
body weight (WT lean mice): neither ACY775 nor ACY738 affected the body weight
liver morphology (WT lean mice): similar
fasting blood glucose after the first week (db/db mice): lower in ACY775-treated mice than vehicle-treated mice
food intake (db/db mice): transitionally reduced by ACY775 treatment during the first 2 days
hepatic steatosis (db/db mice): did not improve hepatic steatosis
plasma insulin levels (db/db mice): did not show any significant alterations
glucose tolerance (GTT) (db/db mice): no difference in glucose tolerance
ITT (db/db mice): no significant difference in blood glucose levels
blood glucose lowering at the end of treatment period (db/db mice; 3 weeks): completely diminished
body weight heavier than initial body weight (db/db mice): 3.82%±0.99%
body weight, HDAC6 KO vs WT DIO mice (HDAC6 KO mice): highly significant decrease in the bodyweight of the WT DIO mice when compared to HDAC6 KO DIG mice
fat mass and fat %, HDAC6 KO vs WT (HDAC6 KO mice): significantly lower in the wt group
lean mass, HDAC6 KO vs WT (HDAC6 KO mice): not different
blood glucose, serum insulin and leptin levels, HDAC6 KO vs WT (HDAC6 KO mice): significantly higher in the ACY775-treated HDAC6 KO group
food intake, HDAC6 KO vs WT DIO mice (HDAC6 KO mice): blocked in the HDAC6 KO mice
glucose tolerance and insulin sensitivity (GTT, ITT), HDAC6 KO vs WT (HDAC6 KO mice): could not increase glucose tolerance and insulin sensitivity in the HDAC6 KO mice
brain/plasma ratio [5]: 1.26

O=C(CCCCCCNC(=O)c1cnc(N(c2ccccc2)c2ccccc2)nc1)NO [Ricolinostat]
leptin-stimulated hypothalamic p-STAT3^Tyr705 in inhibitor-pretreated mice [1]: did not significantly increase STAT3^Tyr705 phosphorylation
HDAC6 inhibition in the hypothalamus (HDAC6): nor show HDAC6 inhibition in the hypothalamus
brain/plasma ratio [5]: 0.01 and < 0.01
brain/plasma ratio ([5]; listed as ricolinostat): 0.01
brain penetrance / BBB permeability ([5]; in words): poor BBB permeability
